Data as given in patent publication US20130109680A1, “METHODS AND COMPOSITIONS FOR AMELIORATING THIAZIDE INDUCED […]” (University of Florida Research Foundation, Inc., priority 2007, published 2013).
“And” between values parts separate entries of the source, which are not always exact repeats. Identical values can stand only once. Marks after values point to notes of the source that are not given here.

Experiments:
Type in all cases: in vivo, Sprague Dawley rats
[1] = system: rats on 60% fructose diet; experiment: Insulin tolerance test (ITT); settings: week 18, 0.75 U/kg insulin i.p., FIG. 4
Method: (§1) Male Sprague Dawley rats (150-200 g, Charles River Inc., Wilmington, Mass.) were placed on a standard natural ingredient diet (catalog #7912, Harlan, Wis.) for a five day run-in period with collection of basal blood and urine. Rats were then divided into 5 groups with similar body weight and baseline blood chemistry (n=8 each group).
At week 18, the ITT was performed on animals fasted for 16 hours by administering 0.75 U/kg recombinant human insulin (Novolin; Novo Nordisk, Princeton, N.J.) via intraperitoneal injection. Blood glucose was determined on tail blood via hand-held blood glucose monitor (OneTouch, Johnson & Johnson) at 5 points; before insulin injection, and at 15, 30, 45 and 60 minutes after insulin injection.

[2] = system: rats on 60% fructose diet; experiment: Serum insulin and Quantitative Insulin Sensitivity Check Index (QUICKI); settings: for QUICKI / insulin sensitivity (in words): week 14, FIG. 3
Method: as §1
Fasting serum glucose and insulin were obtained at week 14 and used to calculate the QUICKI value. Serum insulin was determined by using the rat insulin ELISA kit (Crystal Chem, Chicago, Ill.) which can detect serum insulin in the range of 156-10,000 pg/ml and has the 3.5% intra-assay and 6.3% inter-assay precision. QUICKI is a mathematical model based on log-transformed fasting plasma glucose and insulin values by equal 1/(log [glucose]+log [insulin]). QUICKI predicts insulin sensitivity with lower values representing more insulin resistance.

[3] = system: rats on 60% fructose diet; experiment: Measurement of urinary nitric oxide (nitrate/nitrite); settings: FIG. 5
From the text: as §1
(§2) Rats were weighed weekly and housed separately in metabolic cages for overnight collection of urine (over 18 hrs) with free access to water and no food on weeks 4, 14 and 20. Four hour fasting serum was also collected from the tail vein within the same week of urine collection. At the end of week 20, rats were sacrificed.
Urine was determined NO by using the nitrate/nitrite colorimetric assay kit (Cayman Chemical Company, MI). The kit measures NO reaction products, total nitrate and nitrite concentrations with a modified two-step Griess reaction.

[4] = system: rats on 60% fructose diet; experiment: Biochemical measurements of serum and urine in fructose-fed rats; settings: for serum uric acid (change in words): FIG. 2A; for serum uric acid (change in words) / serum triglycerides (change in words): weeks 4, 14, 20; for serum triglycerides (change in words): FIG. 2D
Method: as §1
(§3) Group 3 (F+HCTZ): 60% fructose diet plus hydrochlorothiazide (HCTZ, Sigma-Aldrich, St. Louis, Mo.) 10 mg/kg/day dissolved in drinking water
(§4) We monitored serum K^+ and increased the concentration of KCL at week 5 (1.5% KCL), week 15 (1.75% KCL) and week 17 (2% KCL) to maintain normal k^+ level in serum through the whole study.
(§5) Group 5 (F+HCTZ+Allopurinol): 60% fructose diet plus the same dose of HCTZ and allopurinol 150 mg/L dissolved in drinking water
as §2
Serum and urine K^+ concentrations were determined with the atomic absorption spectrophotometer (Perkin-Elmer 306). Routine chemistries (including serum glucose, cholesterol, triglycerides, blood urea nitrogen (BUN), sodium, chloride, bicarbonate (HCO3^−) and magnesium (Mg^++); serum and urine creatinine (Cr), uric acid and urine protein concentration) were measured using an autoanalyzer (VetAce, Alfa Wassermann, Inc., West Caldwell, N.J.).

[5] = system: rats on 60% fructose diet; experiment: Tail cuff systolic blood pressure measurement in fructose-fed rats; settings: for systolic blood pressure (SBP): conscious rats, mean±SD
Method: as §1, §3, §4, §5
Systolic blood pressure (SBP) measurement was performed in conscious rats with the use of a tail-cuff sphygmomanometer (Visitech BP2000, Visitech Systems, Apex, N.C.) at weeks 4 and 16. After three time periods of preconditioning, rats were placed in prewarmed chambers (37° C.) for 10-15 min, the pressure and pulse were measured by an automatic tail-cuff inflater and a built-in transducer. The mean of three stable BP readings was used.

In the case of `NS(=O)(=O)c1cc2c(cc1Cl)NCNS2(=O)=O` [F+HCTZ, hydrochlorothiazide], the “blood glucose response to intraperitoneal insulin in ITT (in words)” value [1] is reported as “maintained elevated serum glucose in response to insulin”, the “blood glucose response to intraperitoneal insulin in ITT (in words)” value ([1]; listed as hydrochlorothiazide) is reported as “no change of blood glucose” and the “QUICKI / insulin sensitivity (in words)” value ([2]; listed as HCTZ) is reported as “significantly lower”. The “QUICKI / insulin sensitivity (in words)” value ([2]; listed as hydrochlorothiazide) was “significant lower insulin sensitivity”, the serum insulin concentration ([2]; week 14, rat insulin ELISA, mean±SD) was 3449 ± 1200 pg/mL and the “urine nitrate/nitrite excretion (in words)” value [3] was “even lower nitrite excretion”. The “urine nitrate/nitrite excretion (in words)” value ([3]; listed as Hydrochlorothiazide) was “more reduction of urine nitrate and nitrite”, the “serum uric acid (change in words)” value [4] was “greater hyperuricemia” and the “serum uric acid (change in words)” value ([4]; listed as Hydrochlorothiazide) was “more hyperuricemia”. The “serum glucose (change in words)” value ([4]; FIG. 2B, weeks 14 and 20) was “hyperglycemia”, the “serum cholesterol (change in words)” value ([4]; FIG. 2C) was “numerical higher” and the “serum triglycerides (change in words)” value [4] was “higher in the F+HCTZ group but did not reach statistical significance”. The “serum triglycerides (change in words)” value ([4]; listed as hydrochlorothiazide) was “numerical higher”, the Uric acid clearance ([4]; Table 1, mean±SD) was 0.08 ± 0.03 ^& ml/min and the “Urine protein/Cr” value ([4]; Table 1, mean±SD) was 2.53 ± 2.3. The Urine uric acid ([4]; Table 1, mean±SD) was 2.93 ± 1.0 ^& mg/day, the Cr ([4]; Table 1, serum, week 20, mean±SD) was 0.46 ± 0.11 mg/dL and the BUN ([4]; rat, in vivo) was 26.6 ± 14 *^, & mg/dL. The “Serum K^+” value ([4]; rat, in vivo) was 4.0 ± 0.1 *^, &, # mEq/L, the “Serum Mg^++” value ([4]; rat, in vivo) was 1.15 ± 0.1*^, & mEq/L and the “serum HCO3^−” value ([4]; rat, in vivo) was 24.7±1.1 mEq/L. For the same molecule, the “serum K^+ (in words)” value ([4]; rat, in vivo) was “significantly lower”, the serum uric acid ([4]; week 14 (implied by sentence), mean±SD) was 2.69 ± 0.47 mg/dL and the serum glucose ([4]; week 14, 4 h fasting serum, mean±SD) was 176 ± 13.3 mg/dL. The serum triglycerides ([4]; week 14, mean±SD) was 492 ± 154 mg/dL, the serum glucose ([4]; week 20, 4 h fasting serum, mean±SD) was 186 ± 21.9 mg/dL and 186 ± 22 mg/dL and the serum glucose ([4]; week 20, mean±SD) was 186 ± 22 mg/dL. For the same molecule, the serum triglycerides ([4]; week 20, mean±SD) was 489 ± 178 mg/dL, the serum uric acid ([4]; week 20, mean±SD) was 2.76 ± 0.59 mg/dL and the “effect on systolic blood pressure (in words)” value ([5]; FIG. 1, weeks 4 and 16) was “reduced the systolic blood pressure”. For the same molecule, the “systolic blood pressure (SBP)” value ([5]; week 4, tail cuff) was 129±4.6 mmHg and the “systolic blood pressure (SBP)” value ([5]; week 16, tail cuff) was 136±3.7 mmHg.
